According to the CheMixHub ionic liquid set:
Values joined by “and” are separate entries in the source; they are usually repeats but may differ in a detail not shown here. Identical values can stand only once. ± gives the uncertainty stated by the source.

Assay: xn = mol fraction of the nth substance listed

CCCC[n+]1ccn(C)c1.[Br-] + O
Conditions | electrical conductivity [S/m] | viscosity
288.15 K, 100 kPa, x1 = 0.00126 | – | 1.159 ± 0.044 mPa·s
293.15 K, 100 kPa, x1 = 0.0009002 | – | 1.033 ± 0.032 mPa·s
293.15 K, 100 kPa, x1 = 0.001799 | – | 1.057 ± 0.032 mPa·s
293.15 K, 100 kPa, x1 = 0.002696 | – | 1.069 ± 0.032 mPa·s
298.15 K, 100 kPa, x1 = 0.0001802 | – | 0.916 ± 0.043 mPa·s
298.15 K, 100 kPa, x1 = 0.0007203 | – | 0.921 ± 0.043 mPa·s
298.15 K, 100 kPa, x1 = 0.0009002 | – | 0.918 ± 0.031 mPa·s
298.15 K, 100 kPa, x1 = 0.00126 | – | 0.93 ± 0.043 mPa·s
298.15 K, 100 kPa, x1 = 0.001799 | – | 0.938 ± 0.031 mPa·s
298.15 K, 100 kPa, x1 = 0.002696 | – | 1 ± 0.032 mPa·s
298.15 K, 101 kPa, x1 = 1.982e-05 | – | 0.888 ± 0.019 mPa·s
298.15 K, 101 kPa, x1 = 3.243e-05 | – | 0.889 ± 0.019 mPa·s
298.15 K, 101 kPa, x1 = 0.00999 | 3.16 ± 0.01 | –
298.15 K, 101 kPa, x2 = 0.9094 | 6.16 ± 0.01 | –
298.15 K, 101 kPa, x2 = 0.94 | 6.13 ± 0.01 | –
298.15 K, 101 kPa, x2 = 0.9612 | 5.7 ± 0.01 | –
298.15 K, 101 kPa, x2 = 0.9773 | 4.79 ± 0.01 | –
298.15 K, 101.3 kPa, x1 = 0.000902 | – | 0.911 ± 0.024 mPa·s
298.15 K, 101.3 kPa, x1 = 0.0009056 | – | 0.91 ± 0.024 mPa·s and 0.911 ± 0.024 mPa·s
298.15 K, 101.3 kPa, x1 = 0.0009074 | – | 0.911 ± 0.024 mPa·s
298.15 K, 101.3 kPa, x1 = 0.000911 | – | 0.91 ± 0.024 mPa·s
298.15 K, 101.3 kPa, x1 = 0.00144 | – | 0.933 ± 0.06 mPa·s and 0.936 ± 0.06 mPa·s
298.15 K, 101.3 kPa, x1 = 0.001806 | – | 0.934 ± 0.025 mPa·s and 0.935 ± 0.025 mPa·s
298.15 K, 101.3 kPa, x1 = 0.001835 | – | 0.923 ± 0.025 mPa·s
298.15 K, 101.3 kPa, x1 = 0.001856 | – | 0.932 ± 0.025 mPa·s
298.15 K, 101.3 kPa, x1 = 0.0036 | – | 0.966 ± 0.026 mPa·s
298.15 K, 101.3 kPa, x1 = 0.003602 | – | 0.961 ± 0.026 mPa·s
298.15 K, 101.3 kPa, x1 = 0.003605 | – | 0.961 ± 0.026 mPa·s and 0.963 ± 0.026 mPa·s
298.15 K, 101.3 kPa, x1 = 0.005384 | – | 0.994 ± 0.027 mPa·s
298.15 K, 101.3 kPa, x1 = 0.005411 | – | 0.997 ± 0.027 mPa·s and 0.998 ± 0.027 mPa·s
298.15 K, 101.3 kPa, x1 = 0.005432 | – | 1.004 ± 0.027 mPa·s
303.15 K, 100 kPa, x1 = 0.0009002 | – | 0.823 ± 0.031 mPa·s
303.15 K, 100 kPa, x1 = 0.001799 | – | 0.84 ± 0.031 mPa·s
303.15 K, 100 kPa, x1 = 0.002696 | – | 0.905 ± 0.031 mPa·s
303.15 K, 100 kPa, x1 = 0.05 | – | 2 ± 0.2 mPa·s
303.15 K, 100 kPa, x1 = 0.0992 | – | 3.31 ± 0.33 mPa·s
303.15 K, 100 kPa, x1 = 0.3882 | – | 31.2 ± 3.1 mPa·s
308.15 K, 100 kPa, x1 = 0.0001802 | – | 0.751 ± 0.043 mPa·s
308.15 K, 100 kPa, x1 = 0.0007203 | – | 0.756 ± 0.043 mPa·s
308.15 K, 100 kPa, x1 = 0.0009002 | – | 0.753 ± 0.031 mPa·s
308.15 K, 100 kPa, x1 = 0.00126 | – | 0.763 ± 0.043 mPa·s
308.15 K, 100 kPa, x1 = 0.001799 | – | 0.758 ± 0.031 mPa·s
308.15 K, 100 kPa, x1 = 0.002696 | – | 0.795 ± 0.031 mPa·s
308.15 K, 101 kPa, x1 = 3.243e-05 | – | 0.723 ± 0.016 mPa·s
308.15 K, 101 kPa, x1 = 6.584e-05 | 0.0466 ± 0.00047 | 0.727 ± 0.015 mPa·s
308.15 K, 101 kPa, x1 = 6.667e-05 | – | 0.727 ± 0.016 mPa·s
308.15 K, 101 kPa, x1 = 0.0001326 | 0.0915 ± 0.00093 | 0.735 ± 0.016 mPa·s
308.15 K, 101.3 kPa, x1 = 0.000902 | – | 0.738 ± 0.02 mPa·s
308.15 K, 101.3 kPa, x1 = 0.0009056 | – | 0.735 ± 0.02 mPa·s and 0.736 ± 0.02 mPa·s
308.15 K, 101.3 kPa, x1 = 0.0009074 | – | 0.737 ± 0.02 mPa·s
308.15 K, 101.3 kPa, x1 = 0.000911 | – | 0.735 ± 0.02 mPa·s
308.15 K, 101.3 kPa, x1 = 0.001806 | – | 0.752 ± 0.02 mPa·s
308.15 K, 101.3 kPa, x1 = 0.001835 | – | 0.746 ± 0.02 mPa·s and 0.747 ± 0.02 mPa·s
308.15 K, 101.3 kPa, x1 = 0.001856 | – | 0.75 ± 0.02 mPa·s
308.15 K, 101.3 kPa, x1 = 0.0036 | – | 0.776 ± 0.021 mPa·s
308.15 K, 101.3 kPa, x1 = 0.003602 | – | 0.773 ± 0.021 mPa·s
308.15 K, 101.3 kPa, x1 = 0.003605 | – | 0.77 ± 0.021 mPa·s and 0.771 ± 0.021 mPa·s
308.15 K, 101.3 kPa, x1 = 0.005384 | – | 0.798 ± 0.021 mPa·s
308.15 K, 101.3 kPa, x1 = 0.005411 | – | 0.801 ± 0.021 mPa·s
308.15 K, 101.3 kPa, x1 = 0.005432 | – | 0.802 ± 0.021 mPa·s
310.15 K, 101.3 kPa, x1 = 0.000902 | – | 0.711 ± 0.019 mPa·s
310.15 K, 101.3 kPa, x1 = 0.0009056 | – | 0.707 ± 0.019 mPa·s
310.15 K, 101.3 kPa, x1 = 0.0009074 | – | 0.71 ± 0.019 mPa·s
310.15 K, 101.3 kPa, x1 = 0.000911 | – | 0.707 ± 0.019 mPa·s
310.15 K, 101.3 kPa, x1 = 0.001806 | – | 0.723 ± 0.019 mPa·s
310.15 K, 101.3 kPa, x1 = 0.001835 | – | 0.717 ± 0.019 mPa·s and 0.718 ± 0.019 mPa·s
310.15 K, 101.3 kPa, x1 = 0.001856 | – | 0.723 ± 0.019 mPa·s
310.15 K, 101.3 kPa, x1 = 0.0036 | – | 0.75 ± 0.02 mPa·s
310.15 K, 101.3 kPa, x1 = 0.003602 | – | 0.746 ± 0.02 mPa·s
310.15 K, 101.3 kPa, x1 = 0.003605 | – | 0.74 ± 0.02 mPa·s and 0.742 ± 0.02 mPa·s
310.15 K, 101.3 kPa, x1 = 0.005384 | – | 0.767 ± 0.021 mPa·s
310.15 K, 101.3 kPa, x1 = 0.005411 | – | 0.767 ± 0.021 mPa·s
310.15 K, 101.3 kPa, x1 = 0.005432 | – | 0.772 ± 0.021 mPa·s
313.15 K, 100 kPa, x1 = 0.0009002 | – | 0.676 ± 0.031 mPa·s
313.15 K, 100 kPa, x1 = 0.001799 | – | 0.689 ± 0.031 mPa·s
313.15 K, 100 kPa, x1 = 0.002696 | – | 0.749 ± 0.031 mPa·s
313.15 K, 100 kPa, x1 = 0.3882 | – | 20 ± 2 mPa·s
313.15 K, 101.3 kPa, x1 = 0.00144 | – | 0.58 ± 0.1 mPa·s and 0.695 ± 0.06 mPa·s and 0.697 ± 0.06 mPa·s
318.15 K, 100 kPa, x1 = 0.0001802 | – | 0.634 ± 0.042 mPa·s
318.15 K, 100 kPa, x1 = 0.0007203 | – | 0.64 ± 0.042 mPa·s
318.15 K, 100 kPa, x1 = 0.0009002 | – | 0.618 ± 0.031 mPa·s and 0.619 ± 0.031 mPa·s
318.15 K, 100 kPa, x1 = 0.00126 | – | 0.646 ± 0.042 mPa·s
318.15 K, 100 kPa, x1 = 0.001799 | – | 0.631 ± 0.031 mPa·s
318.15 K, 100 kPa, x1 = 0.002696 | – | 0.68 ± 0.031 mPa·s
318.15 K, 101.3 kPa, x1 = 0.000902 | – | 0.611 ± 0.016 mPa·s
318.15 K, 101.3 kPa, x1 = 0.0009056 | – | 0.608 ± 0.016 mPa·s and 0.609 ± 0.016 mPa·s
318.15 K, 101.3 kPa, x1 = 0.0009074 | – | 0.612 ± 0.016 mPa·s
318.15 K, 101.3 kPa, x1 = 0.000911 | – | 0.608 ± 0.016 mPa·s
318.15 K, 101.3 kPa, x1 = 0.001806 | – | 0.623 ± 0.017 mPa·s
318.15 K, 101.3 kPa, x1 = 0.001835 | – | 0.619 ± 0.017 mPa·s
318.15 K, 101.3 kPa, x1 = 0.001856 | – | 0.622 ± 0.017 mPa·s
318.15 K, 101.3 kPa, x1 = 0.0036 | – | 0.643 ± 0.017 mPa·s
318.15 K, 101.3 kPa, x1 = 0.003602 | – | 0.642 ± 0.017 mPa·s
318.15 K, 101.3 kPa, x1 = 0.003605 | – | 0.638 ± 0.017 mPa·s and 0.639 ± 0.017 mPa·s
318.15 K, 101.3 kPa, x1 = 0.005384 | – | 0.659 ± 0.018 mPa·s and 0.66 ± 0.018 mPa·s
318.15 K, 101.3 kPa, x1 = 0.005411 | – | 0.66 ± 0.018 mPa·s
318.15 K, 101.3 kPa, x1 = 0.005432 | – | 0.665 ± 0.018 mPa·s
323.15 K, 100 kPa, x1 = 0.3882 | – | 14.6 ± 1.5 mPa·s
333.15 K, 100 kPa, x1 = 0.05 | – | 1.04 ± 0.1 mPa·s
333.15 K, 100 kPa, x1 = 0.0992 | – | 1.66 ± 0.17 mPa·s
333.15 K, 100 kPa, x1 = 0.1979 | – | 3.69 ± 0.37 mPa·s
333.15 K, 100 kPa, x1 = 0.2517 | – | 4.94 ± 0.5 mPa·s
333.15 K, 100 kPa, x1 = 0.3882 | – | 10.6 ± 1.1 mPa·s
